Test results reported in patent publication US9834542B2, “LXR modulators” (BRISTOL-MYERS SQUIBB COMPANY, priority 2013, dated 2017).

Biological target: T1, LXRβ (Homo sapiens, UniProt P55055)
T1 construct: Co-transfection expression plasmids, comprising full-length LXRα (pCMX-h LXRα[…] or LXRβ (pCMX-hLXRβ)); expressed in transfected cells; host or cells: CV-1 African Green Monkey Kidney Cells
T1 sequence (P55055 1-460): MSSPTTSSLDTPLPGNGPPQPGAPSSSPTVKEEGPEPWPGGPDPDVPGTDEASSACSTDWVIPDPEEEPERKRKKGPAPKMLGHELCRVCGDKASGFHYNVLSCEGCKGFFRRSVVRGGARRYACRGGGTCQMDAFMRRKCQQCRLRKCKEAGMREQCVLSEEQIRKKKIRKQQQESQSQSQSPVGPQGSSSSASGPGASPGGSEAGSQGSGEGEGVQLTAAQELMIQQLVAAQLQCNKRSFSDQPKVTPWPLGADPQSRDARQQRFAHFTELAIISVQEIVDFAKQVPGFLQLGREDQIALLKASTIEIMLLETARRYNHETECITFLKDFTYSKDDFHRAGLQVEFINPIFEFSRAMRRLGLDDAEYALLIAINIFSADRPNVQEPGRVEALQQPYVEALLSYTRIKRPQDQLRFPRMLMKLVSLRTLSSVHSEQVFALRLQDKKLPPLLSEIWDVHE
T1 sequence (P19793 1-462 partner): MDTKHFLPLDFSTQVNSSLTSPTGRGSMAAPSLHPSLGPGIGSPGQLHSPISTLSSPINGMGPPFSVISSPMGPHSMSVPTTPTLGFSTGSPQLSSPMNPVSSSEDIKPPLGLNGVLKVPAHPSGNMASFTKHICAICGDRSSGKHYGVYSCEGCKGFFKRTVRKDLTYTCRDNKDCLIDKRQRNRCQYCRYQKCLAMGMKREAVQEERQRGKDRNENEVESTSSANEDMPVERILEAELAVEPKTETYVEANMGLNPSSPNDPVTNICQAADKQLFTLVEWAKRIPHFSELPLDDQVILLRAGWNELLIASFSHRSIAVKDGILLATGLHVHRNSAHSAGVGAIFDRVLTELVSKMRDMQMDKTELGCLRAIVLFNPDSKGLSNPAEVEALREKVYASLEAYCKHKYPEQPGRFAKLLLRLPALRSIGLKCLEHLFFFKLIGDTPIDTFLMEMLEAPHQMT
Experiment: Co-transfection assay (LXRE luciferase reporter), LXRβ
Format: cell-based
Settings: for EC50: CV-1 cells transfected with pCMX-hLXRβ and LXREx1-Tk-Luciferase, 20 hours incubation; for Emax: LXRβ co-transfection, relative to high control 1-(2,4-difluorobenzyl)-2-oxo-6-(4-phenoxyphenyl)-4-(trifluoromethyl)-1,2-dihydropyridine-3-carbonitrile, read-out: % Efficacy
In short: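 Luciferase output from an LXRE-Tk reporter measured after 20 h, 37 °C compound exposure of transiently transfected CV-1 cells expressing human LXRβ with endogenous RXR. EC50 fitted from 11-point half-log dose responses (mean of ≥2 runs); % efficacy versus maximal response of the reference agonist.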

Row | SMILES | EC50 [nM] | Emax [%]
1 | Cc1nc(C(F)(F)F)cn1-c1ccc(-c2cccc(S(C)(=O)=O)c2)cc1-n1nncc1-c1ccc2c(c1)OC(F)(F)O2 [Example 73, 5-(2,2-difluoro-1,3-benzodioxol-5-yl)-1-{3′-(methylsulfonyl)-4-[2-methyl-4-(trifluoromethyl)-1H-imidazol-1-yl]biphenyl-3-yl}-1H-1,2,3-triazole] | 476 | 99
2 | Cc1nc(C(C)(F)F)cn1-c1ccc(-c2cccc(S(C)(=O)=O)c2)cc1-n1nncc1-c1ccc(OC(F)(F)F)cc1 [Example 165, 1-{4-[4-(1,1-difluoroethyl)-2-methyl-1H-imidazol-1-yl]-3′-(methylsulfonyl)biphenyl-3-yl}-5-{4-[(trifluoromethyl)oxy]phenyl}-1H-1,2,3-triazole] | 643 | 66
3 | Cc1nc(C(F)(F)F)cn1-c1ccc(-c2cccc(S(C)(=O)=O)c2)cc1-n1nncc1-c1ccc2[nH]ccc2c1 [Example 45, 5-(1-{3′-(methylsulfonyl)-4-[2-methyl-4-(trifluoromethyl)-1H-imidazol-1-yl]biphenyl-3-yl}-1H-1,2,3-triazol-5-yl)-1H-indole] | 1840 | 53
4 | Cc1nc(-c2cc(-c3cc(F)cc(S(C)(=O)=O)c3)ccc2-n2cc(C(F)(F)F)nc2C)c(-c2ccc(OC(F)F)c(F)c2)o1 [Example 462] | 233 | 73
5 | COc1ccc(-c2oc(C)nc2-c2cc(-c3cccc(S(C)(=O)=O)c3)ccc2-n2cc(C(F)(F)F)nc2C)cn1 [Example 569, 5-(6-methoxypyridin-3-yl)-2-methyl-4-(4-(2-methyl-4-(trifluoromethyl)-1H-imidazol-1-yl)-3′-(methylsulfonyl)-[1,1′-biphenyl]-3-yl)oxazole] | 214 | 90
6 | Cc1nc(-c2cc(-c3cccc(S(C)(=O)=O)c3)ccc2-n2cc(C(F)(F)F)nc2C)c(-c2cccnc2C2CC2)o1 [Example 390, 5-(2-cyclopropylpyridin-3-yl)-2-methyl-4-(4-(2-methyl-4-(trifluoromethyl)-1H-imidazol-1-yl)-3′-(methylsulfonyl)biphenyl-3-yl)oxazole] | 2080 | 62
7 | Cc1nc(C(F)F)cn1-c1ccc(-c2cc(F)c(CO)c(S(C)(=O)=O)c2)cc1-c1cnnn1Cc1ccc(Cl)cc1 [Example 248, (3′-(1-(4-chlorobenzyl)-1H-1,2,3-triazol-5-yl)-4′-(4-(difluoromethyl)-2-methyl-1H-imidazol-1-yl)-3-fluoro-5-(methylsulfonyl)-[1,1′-biphenyl]-4-yl)methanol] | 185 | 88
8 | COc1ccc(-c2ccc(-n3cc(C(F)(F)F)nc3C)c(-n3nncc3-c3ccc(OC(F)(F)F)cc3)c2)cc1S(C)(=O)=O [Example 94, 1-{4′-(methyloxy)-3′-(methylsulfonyl)-4-[2-methyl-4-(trifluoromethyl)-1H-imidazol-1-yl]biphenyl-3-yl}-5-{4-[(trifluoromethyl)oxy]phenyl}-1H-1,2,3-triazole] | 2340 | 71

Stronger by EC50, values ahead:

Row | EC50 [nM] | Emax [%] | SMILES
9 | 40 | 116 | Cc1nc(C(F)(F)F)c(Cl)n1-c1ccc(-c2cc(F)c(CO)c(S(C)(=O)=O)c2)cc1-n1nncc1-c1ccc(OC(F)(F)F)cc1 [Example 1, {4′-[5-chloro-2-methyl-4-(trifluoromethyl)-1H-imidazol-1-yl]-3-fluoro-5-(methylsulfonyl)-3′-(5-{4-[(trifluoromethyl)oxy]phenyl}-1H-1,2,3-triazol-1-yl)biphenyl-4-yl}methanol]
10 | 107 | 54 | COCCc1nc(-c2cc(-c3cc(F)c(CO)c(S(C)(=O)=O)c3)ccc2-n2cc(C(F)(F)F)nc2C)c(-c2ccc(OC(F)(F)F)cc2)o1 [Example 527, (3-fluoro-3′-(2-(2-methoxyethyl)-5-(4-(trifluoromethoxy)phenyl)oxazol-4-yl)-4′-(2-methyl-4-(trifluoromethyl)-1H-imidazol-1-yl)-5-(meththsulfonyl)-[1,1′-biphenyl]-4-yl)methanol]
11 | 37 | 38 | Cc1nc(-c2cc(-c3cc(F)c(CO)c(S(C)(=O)=O)c3)ccc2-n2cc(C(F)(F)F)nc2C)c(-c2ccc(F)cc2F)o1 [Example 454, (3′-(5-(2,4-difluorophenyl)-2-methyloxazol-4-yl)-3-fluoro-4′-(2-methyl-4-(trifluoromethyl)-1H-imidazol-1-yl)-5-(methylsulfonyl)biphenyl-4-yl)methanol]
12 | 94 | 89 | CNS(=O)(=O)c1cccc(-c2ccc(-n3cc(C(F)(F)F)nc3C)c(-n3nncc3-c3ccc(OC(F)(F)F)cc3)c2)c1 [Example 213, N-methyl-4′-(2-methyl-4-(trifluoromethyl)-1H-imidazol-1-yl)-3′-(5-(4-(trifluoromethoxy)phenyl)-1H-1,2,3-triazol-1-yl)-[1,1′-biphenyl]-3-sulfonamide]
13 | 82 | 68 | Cc1nc(-c2cc(-c3cccc(S(C)(=O)=O)c3)ccc2-n2cc(C(F)(F)F)nc2C)c(-c2ccc(Cl)c(Cl)c2)o1 [Example 508, 5-(3,4-dichlorophenyl)-2-methyl-4-(4-(2-methyl-4-(trifluoromethyl)-1H-imidazol-1-yl)-3′-(methylsulfonyl)biphenyl-3-yl)oxazole]
14 | 118 | 70 | Cc1nc(-c2cc(-c3cc(F)c(CO)c(S(C)(=O)=O)c3)ccc2-n2cc(C(F)(F)F)nc2C)c(-c2ccc(OC(CF)CF)c(F)c2)o1 [Example 407, (3′-(5-(4-(1,3-difluoropropan-2-yloxy)-3-fluorophenyl)-2-methyloxazol-4-yl)-3-fluoro-4′-(2-methyl-4-(trifluoromethyl)-1H-imidazol-1-yl)-5-(methylsulfonyl)biphenyl-4-yl)methanol]
15 | 57 | 62 | Cc1nc(-c2ccc(OC(F)(F)F)cc2O)c(-c2cc(-c3cccc(S(C)(=O)=O)c3)ccc2-n2cc(C(F)(F)F)nc2C)o1 [Example 626, 2-(2-methyl-5-(4-(2-methyl-4-(trifluoromethyl)-1H-imidazol-1-yl)-3′-(methylsulfonyl)-[1,1′-biphenyl]-3-yl)oxazol-4-yl)-5-(trifluoromethoxy)phenol]
16 | 18 | 81 | COc1cc(-c2oc(C)nc2-c2cc(-c3cc(F)c(CO)c(S(C)(=O)=O)c3)ccc2-n2cc(C(F)(F)F)nc2C)ccc1OC(F)F [Example 381, (3′-(5-(4-(difluoromethoxy)-3-methoxyphenyl)-2-methyloxazol-4-yl)-3-fluoro-4′-(2-methyl-4-(trifluoromethyl)-1H-imidazol-1-yl)-5-(methylsulfonyl)biphenyl-4-yl)methanol]
17 | 14 | 82 | CCCc1nc(-c2cc(-c3cc(F)c(CO)c(S(C)(=O)=O)c3)ccc2-n2cc(C(F)(F)F)nc2C)c(-c2ccc(OC(F)(F)F)cc2)o1 [Example 557, (3-fluoro-4′-(2-methyl-4-(trifluoromethyl)-1H-imidazol-1-yl)-5-(methylsulfonyl)-3′-(2-propyl-5-(4-(trifluoromethoxy)phenyl)oxazol-4-yl)-[1,1′-biphenyl]-4-yl)methanol]
18 | 34 | 71 | Cc1nc(-c2cc(-c3cccc(S(C)(=O)=O)c3)ccc2-n2cc(C(F)(F)F)nc2C)c(-c2ccc(OC(F)F)cc2Cl)o1 [Example 396, 5-(2-chloro-4-(difluoromethoxy)phenyl)-2-methyl-4-(4-(2-methyl-4-(trifluoromethyl)-1H-imidazol-1-yl)-3′-(methylsulfonyl)biphenyl-3-yl)oxazole]
